Experimental data published in patent US20250059179A1, “Heterocyclic Compounds and Methods of Use” (AMGEN INC., priority 2021, published 2025).

Legend:
[1] = molecular target: His-tagged KRAS G12D protein (Homo sapiens, UniProt P01116, G12D); assay: KRAS G12D TR-FRET Assay; format: binding; conditions: biotinylated KRPep-2d substrate, 10 μM GDP;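 further: europium anti-His antibody paired with streptavidin-d2 as FRET partners, initial 30 min incubation, then peptide 1 h and detection reagents 1 h, all at room temperature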
Chain of His-tagged KRAS G12D protein (P01116 1-188 isoform P01116-2 G12D): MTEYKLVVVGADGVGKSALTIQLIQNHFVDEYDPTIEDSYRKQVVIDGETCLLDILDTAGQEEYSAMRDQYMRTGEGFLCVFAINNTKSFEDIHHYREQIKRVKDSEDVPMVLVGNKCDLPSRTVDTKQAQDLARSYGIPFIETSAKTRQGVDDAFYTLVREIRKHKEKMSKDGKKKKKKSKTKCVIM

[2] = molecular target: GDP-bound KRAS protein (aa 1-169), containing both G12D and C118A amino acid substitutions (Homo sapiens, UniProt P01116, C118A/G12D); assay: KRAS G12D Coupled Nucleotide Exchange Assay; format: biochemical; conditions: 2 h compound pre-incubation; SOS-mediated nucleotide exchange, cRAF AlphaScreen readout;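 further: IC50 obtained by fitting the AlphaScreen signal with a four-parameter logistic curve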
Chain of GDP-bound KRAS protein (aa 1-169), containing both G12D and C118A amino acid substitutions (P01116 1-169 isoform P01116-2 G12D/C118A): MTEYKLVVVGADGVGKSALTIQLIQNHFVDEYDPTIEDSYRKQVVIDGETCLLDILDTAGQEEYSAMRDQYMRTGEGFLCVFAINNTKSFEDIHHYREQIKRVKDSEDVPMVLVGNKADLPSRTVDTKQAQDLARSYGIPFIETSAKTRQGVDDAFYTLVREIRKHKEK

| SMILES | IC50 [1] [µM] | Avg 2 h Coupled Exchange IC50 [2] [µM] |
| --- | --- | --- |
| CC1CNCC=C1c1nc(OC[C@@H]2CCCN2C)nc2c(F)c(-c3cccc4sc(N)nc34)c(Cl)cc12 (single isomer, unassigned) [Example 145] | 2.97 | 0.803 |
| CC1CNCC=C1c1nc(OC[C@@H]2CCCN2C)nc2c(F)c(-c3cccc4sc(N)nc34)c(Cl)cc12 (single isomer, unassigned) [Example 146] | 4.09 | 1.56 |
| CN1CCC[C@H]1COc1nc(N2CCNC(C(F)(F)F)C2)c2cc(Cl)c(-c3cccc4sc(N)nc34)c(F)c2n1 (stereo partly drawn) [Example 1, 4-(6-Chloro-8-fluoro-2-(((S)-1-methylpyrrolidin-2-yl)methoxy)-4-(3-(trifluoromethyl)piperazin-1-yl)quinazolin-7-yl)benzo[d]thiazol-2-amine] | 11.3 | 3.655 |
| Nc1nc2c(-c3c(Cl)cc4c(N5CCNCC5)nc(OCC56CCCN5CCC6)nc4c3F)ccc(F)c2s1 [Example 8, 4-(6-chloro-8-fluoro-4-(piperazin-1-yl)-2-((tetrahydro-1H-pyrrolizin-7a(5H)-yl)methoxy)quinazolin-7-yl)-7-fluorobenzo[d] thiazol-2-amine] | 0.009 | 0.007 |
| CN1CCC[C@H]1COc1nc(N2C3CNCC2COC3)c2cc(Cl)c(-c3cccc4sc(N)nc34)c(F)c2n1 [Example 10, 4-(4-(3-oxa-7,9-diazabicyclo[3.3.1]nonan-9-yl)-6-chloro-8-fluoro-2-(((S)-1-methylpyrrolidin-2-yl)methoxy)quinazolin-7-yl)benzo[d] thiazol-2-amine] | 0.014 | 0.01 |
| Nc1nc2c(-c3c(Cl)cc4c(N5CCCNC(=O)C5)nc(OCC56CCCN5CCC6)nc4c3F)ccc(F)c2s1 [Example 12, 4-(7-(2-amino-7-fluorobenzo[d]thiazol-4-yl)-6-chloro-8-fluoro-2-((tetrahydro-1H-pyrrolizin-7a(5H)-yl)methoxy)quinazolin-4-yl)-1,4-diazepan-2-one] | 0.018 | 0.014 |
| Nc1nc2c(-c3c(Cl)cc4c(N5CCNC(=O)CC5)nc(OCC56CCCN5CCC6)nc4c3F)ccc(F)c2s1 [Example 13, 1-(7-(2-amino-7-fluorobenzo [d]thiazol-4-yl)-6-chloro-8-fluoro-2-((tetrahydro-1H-pyrrolizin-7a(5H)-yl)methoxy)quinazolin-4-yl)-1,4-diazepan-5-one] | 0.022 | 0.014 |
| CN1CCC[C@H]1COc1nc(N2CCCNCC2)c2cc(Cl)c(-c3cccc4sc(N)nc34)c(F)c2n1 [Example 17, 4-(6-chloro-4-(1,4-diazepan-1-yl)-8-fluoro-2-(((S)-1-methylpyrrolidin-2-yl)methoxy)quinazolin-7-yl)benzo[d] thiazol-2-amine] | 0.135 | 0.03 |
| CN1C[C@H](F)C[C@H]1COc1nc(N2CCCNC(=O)C2)c2cc(Cl)c(-c3ccc(F)c4sc(N)nc34)c(F)c2n1 [Example 19, 4-(7-(2-amino-7-fluorobenzo[d]thiazol-4-yl)-6-chloro-8-fluoro-2-(((2S,4R)-4-fluoro-1-methylpyrrolidin-2-yl)methoxy)quinazolin-4-yl)-1,4-diazepan-2-one] | 0.085 | 0.062 |
| CN1C[C@H](F)C[C@H]1COc1nc(N2CCNC(=O)CC2)c2cc(Cl)c(-c3ccc(F)c4sc(N)nc34)c(F)c2n1 [Example 21, 1-(7-(2-amino-7-fluorobenzo[d]thiazol-4-yl)-6-chloro-8-fluoro-2-(((2S,4R)-4-fluoro-1-methylpyrrolidin-2-yl)methoxy)quinazolin-4-yl)-1,4-diazepan-5-one] | 0.097 | 0.067 |
| Nc1nc2c(-c3c(Cl)cc4c(N5CCNCC5)nc(N5CC6(CCOCC(=O)N6)C5)nc4c3F)cccc2s1 [Example 105, 2-[7-(2-amino-1,3-benzothiazol-4-yl)-6-chloro-8-fluoro-4-piperazin-1-yl-quinazolin-2-yl]-8-oxa-2,5-diazaspiro[3.6]decan-6-one] | – | 1.85 |
| Nc1nc2c(-c3c(Cl)cc4c(N5CCNCC5)nc(NCC(O)c5cncs5)nc4c3F)cccc2s1 (stereo not shown) [Example 106, 2-[[7-(2-amino-1,3-benzothiazol-4-yl)-6-chloro-8-fluoro-4-piperazin-1-yl-quinazolin-2-yl]amino]-1-thiazol-5-yl-ethanol] | – | 1.9 |
| Nc1nc2c(-c3c(Cl)cc4c(N5CCNCC5)nc(N5CCN6CCC5C6)nc4c3F)cccc2s1 (stereo not shown) [Example 107, 4-[6-chloro-8-fluoro-4-piperazin-1-yl-2-[1,4-diazabicyclo[3.2.1]octan-4-yl]quinazolin-7-yl]-1,3-benzothiazol-2-amine] | – | 1.9 |
| Nc1nc2c(-c3c(Cl)cc4c(N5CCNCC5)nc(N5CC6(CC(O)c7nccn76)C5)nc4c3F)cccc2s1 (stereo not shown) [Example 108, 1′-[7-(2-amino-1,3-benzothiazol-4-yl)-6-chloro-8-fluoro-4-piperazin-1-yl-quinazolin-2-yl]spiro[6,7-dihydropyrrolo[1,2-a]imidazole-5,3′-azetidine]-7-ol] | – | 1.97 |
| Nc1nc2c(-c3c(Cl)cc4c(N5CCNCC5)nc(N5CCC6(CCN6)C5)nc4c3F)cccc2s1 (stereo not shown) [Example 109, 4-[6-chloro-8-fluoro-4-piperazin-1-yl-2-[1,7-diazaspiro[3.4]octan-7-yl]quinazolin-7-yl]-1,3-benzothiazol-2-amine] | – | 2.17 |
| Nc1nc2c(-c3c(Cl)cc4c(N5CCNCC5)nc(N[C@H]5CCc6ncsc6C5)nc4c3F)cccc2s1 [Example 110, 4-[6-chloro-8-fluoro-4-piperazin-1-yl-2-[[(6S)-4,5,6,7-tetrahydro-1,3-benzothiazol-6-yl]amino]quinazolin-7-yl]-1,3-benzothiazol-2-amine] | – | 2.18 |
| Nc1nc2c(-c3c(Cl)cc4c(N5CCNCC5)nc(N5CC(N6CCS(=O)(=O)CC6)C5)nc4c3F)cccc2s1 [Example 111, 4-[6-chloro-2-[3-(1,1-dioxo-1,4-thiazinan-4-yl)azetidin-1-yl]-8-fluoro-4-piperazin-1-yl-quinazolin-7-yl]-1,3-benzothiazol-2-amine] | – | 2.3 |
| CCN1CCN(C2CN(c3nc(N4CCNCC4)c4cc(Cl)c(-c5cccc6sc(N)nc56)c(F)c4n3)C2)CC1 [Example 112, 4-[6-chloro-2-[3-(4-ethylpiperazin-1-yl)azetidin-1-yl]-8-fluoro-4-piperazin-1-yl-quinazolin-7-yl]-1,3-benzothiazol-2-amine] | – | 2.46 |
| CN1C(=O)CC2(CN(c3nc(N4CCNCC4)c4cc(Cl)c(-c5cccc6sc(N)nc56)c(F)c4n3)C2)n2ccnc21 [Example 113, 1′-[7-(2-amino-1,3-benzothiazol-4-yl)-6-chloro-8-fluoro-4-piperazin-1-yl-quinazolin-2-yl]-8-methyl-spiro[6H-imidazo[1,2-a]pyrimidine-5,3′-azetidine]-7-one] | – | 2.48 |
| Nc1nc2c(-c3c(Cl)cc4c(N5CCNCC5)nc(N5CC6CNC(C6)C5)nc4c3F)cccc2s1 (stereo not shown) [Example 114, 4-[6-chloro-8-fluoro-4-piperazin-1-yl-2-[3,6-diazabicyclo[3.2.1]octan-3-yl]quinazolin-7-yl]-1,3-benzothiazol-2-amine] | – | 2.77 |
| Nc1nc2c(-c3c(Cl)cc4c(N5CCNCC5)nc(N5C[C@@H]6NCC[C@@H]65)nc4c3F)cccc2s1 [Example 115, 4-[6-chloro-2-[(1S,5S)-2,6-diazabicyclo[3.2.0]heptan-6-yl]-8-fluoro-4-piperazin-1-yl-quinazolin-7-yl]-1,3-benzothiazol-2-amine] | – | 2.86 |
| Nc1nc2c(-c3c(Cl)cc4c(N5CCNCC5)nc(N5CC(n6ccnc6)C5)nc4c3F)cccc2s1 [Example 116, 4-[6-chloro-8-fluoro-2-(3-imidazol-1-ylazetidin-1-yl)-4-piperazin-1-yl-quinazolin-7-yl]-1,3-benzothiazol-2-amine] | – | 3.11 |
| CC1(C)CN(C2CN(c3nc(N4CCNCC4)c4cc(Cl)c(-c5cccc6sc(N)nc56)c(F)c4n3)C2)CCO1 [Example 117, 4-[6-chloro-2-[3-(2,2-dimethylmorpholin-4-yl)azetidin-1-yl]-8-fluoro-4-piperazin-1-yl-quinazolin-7-yl]-1,3-benzothiazol-2-amine] | – | 3.32 |
| Nc1nc2c(-c3c(Cl)cc4c(N5CCNCC5)nc(N5CC6(C5)NCC6(F)F)nc4c3F)cccc2s1 [Example 118, 4-[6-chloro-2-(3,3-difluoro-1,6-diazaspiro[3.3]heptan-6-yl)-8-fluoro-4-piperazin-1-yl-quinazolin-7-yl]-1,3-benzothiazol-2-amine] | – | 3.37 |
| CCOC(=O)c1ccn(C2CN(c3nc(N4CCNCC4)c4cc(Cl)c(-c5cccc6sc(N)nc56)c(F)c4n3)C2)n1 [Example 119, ethyl 1-[1-[7-(2-amino-1,3-benzothiazol-4-yl)-6-chloro-8-fluoro-4-piperazin-1-yl-quinazolin-2-yl]azetidin-3-yl]pyrazole-3-carboxylate] | – | 3.67 |
| Nc1nc2c(-c3c(Cl)cc4c(N5CCNCC5)nc(N5CC6(CCNC6)C5)nc4c3F)cccc2s1 [Example 120, 4-[6-chloro-2-(2,7-diazaspiro[3.4]octan-2-yl)-8-fluoro-4-piperazin-1-yl-quinazolin-7-yl]-1,3-benzothiazol-2-amine] | – | 3.9 |
| Nc1nc2c(-c3c(Cl)cc4c(N5CCNCC5)nc(N5CCCC(c6nccs6)C5)nc4c3F)cccc2s1 (stereo not shown) [Example 121, 4-[6-chloro-8-fluoro-4-piperazin-1-yl-2-[3-thiazol-2-yl-1-piperidyl]quinazolin-7-yl]-1,3-benzothiazol-2-amine] | – | 3.95 |
